ChEMBL document CHEMBL4507301 (2021)

Tests used:
[1] = target: AP2-associated protein kinase 1 (Homo sapiens) (UniProt Q2M2I8); details: Compound concentration 1000.0 nM
[2] = target: Activin receptor type-1-like (Homo sapiens) (UniProt P37023); details: Compound concentration 1000.0 nM
[3] = target: Cytoplasmic tyrosine-protein kinase BMX (Homo sapiens) (UniProt P51813); details: Compound concentration 1000.0 nM
[4] = target: Calcium/calmodulin-dependent protein kinase kinase 1 (Homo sapiens) (UniProt Q8N5S9); details: Compound concentration 1000.0 nM
[5] = target: Cyclin-dependent kinase 13 (Homo sapiens) (UniProt Q14004); details: Compound concentration 1000.0 nM
[6] = target: Cyclin-dependent kinase 7 (Homo sapiens) (UniProt P50613); details: Compound concentration 1000.0 nM
[7] = target: Cyclin-dependent kinase-like 3 (Homo sapiens) (UniProt Q8IVW4); details: Compound concentration 1000.0 nM
[8] = target: Receptor tyrosine-protein kinase erbB-3 (Homo sapiens) (UniProt P21860); details: Compound concentration 1000.0 nM
[9] = target: Mitogen-activated protein kinase 15 (Homo sapiens) (UniProt Q8TD08); details: Compound concentration 1000.0 nM
[10] = target: Tyrosine-protein kinase Fes/Fps (Homo sapiens) (UniProt P07332); details: Compound concentration 1000.0 nM
[11] = target: LIM domain kinase 1 (Homo sapiens) (UniProt P53667); details: Compound concentration 1000.0 nM
[12] = target: Dual specificity mitogen-activated protein kinase kinase 5 (Homo sapiens) (UniProt Q13163); details: Compound concentration 1000.0 nM
[13] = target: MAP kinase-interacting serine/threonine-protein kinase 2 (Homo sapiens) (UniProt Q9HBH9); details: Compound concentration 1000.0 nM
[14] = target: Mitogen-activated protein kinase kinase kinase 9 (Homo sapiens) (UniProt P80192); details: Compound concentration 1000.0 nM
[15] = target: Mitogen-activated protein kinase kinase kinase 11 (Homo sapiens) (UniProt Q16584); details: Compound concentration 1000.0 nM
[16] = target: Serine/threonine-protein kinase MRCK alpha (Homo sapiens) (UniProt Q5VT25); details: Compound concentration 1000.0 nM
[17] = target: Myosin light chain kinase, smooth muscle (Homo sapiens) (UniProt Q15746); details: Compound concentration 1000.0 nM
[18] = target: Mitogen-activated protein kinase 12 (Homo sapiens) (UniProt P53778); details: Compound concentration 1000.0 nM
[19] = target: Cyclin-dependent kinase 14 (Homo sapiens) (UniProt O94921); details: Compound concentration 1000.0 nM
[20] = target: Phosphorylase b kinase gamma catalytic chain, skeletal muscle/heart isoform (Homo sapiens) (UniProt Q16816); details: Compound concentration 1000.0 nM
[21] = target: Phosphatidylinositol 4,5-bisphosphate 3-kinase catalytic subunit alpha isoform (Homo sapiens) (UniProt P42336); details: Compound concentration 1000.0 nM
[22] = tested on: Phosphatidylinositol 4,5-bisphosphate 3-kinase catalytic subunit alpha isoform (Homo sapiens), P42336 [E542K]; details: Compound concentration 1000.0 nM
[23] = target: Serine/threonine-protein kinase pim-2 (Homo sapiens) (UniProt Q9P1W9); details: Compound concentration 1000.0 nM
[24] = target: Serine/threonine-protein kinase pim-3 (Homo sapiens) (UniProt Q86V86); details: Compound concentration 1000.0 nM
[25] = target: cAMP-dependent protein kinase catalytic subunit alpha (Homo sapiens) (UniProt P17612); details: Compound concentration 1000.0 nM
[26] = target: cAMP-dependent protein kinase catalytic subunit beta (Homo sapiens) (UniProt P22694); details: Compound concentration 1000.0 nM
[27] = target: Interferon-induced, double-stranded RNA-activated protein kinase (Homo sapiens) (UniProt P19525); details: Compound concentration 1000.0 nM
[28] = target: Receptor-interacting serine/threonine-protein kinase 2 (Homo sapiens) (UniProt O43353); details: Compound concentration 1000.0 nM
[29] = target: Rho-associated protein kinase 2 (Homo sapiens) (UniProt O75116); details: Compound concentration 1000.0 nM
[30] = target: Ribosomal protein S6 kinase alpha-6 (Homo sapiens) (UniProt Q9UK32); details: Compound concentration 1000.0 nM
[31] = target: Serine/threonine-protein kinase Sgk1 (Homo sapiens) (UniProt O00141); details: Compound concentration 1000.0 nM
[32] = target: NUAK family SNF1-like kinase 2 (Homo sapiens) (UniProt Q9H093); details: Compound concentration 1000.0 nM
[33] = target: TGF-beta receptor type-2 (Homo sapiens) (UniProt P37173); details: Compound concentration 1000.0 nM
[34] = target: High affinity nerve growth factor receptor (Homo sapiens) (UniProt P04629); details: Compound concentration 1000.0 nM
[35] = target: NT-3 growth factor receptor (Homo sapiens) (UniProt Q16288); details: Compound concentration 1000.0 nM
[36] = target: Dual specificity protein kinase TTK (Homo sapiens) (UniProt P33981); details: Compound concentration 1000.0 nM
[37] = target: Non-receptor tyrosine-protein kinase TYK2 (Homo sapiens) (UniProt P29597); details: Compound concentration 1000.0 nM
[38] = target: Serine/threonine-protein kinase ULK1 (Homo sapiens) (UniProt O75385); details: Compound concentration 1000.0 nM
[39] = target: Serine/threonine-protein kinase VRK2 (Homo sapiens) (UniProt Q86Y07); details: Compound concentration 1000.0 nM
[40] = target: Mitogen-activated protein kinase kinase kinase 20 (Homo sapiens) (UniProt Q9NYL2); details: Compound concentration 1000.0 nM
[41] = target: 5-hydroxytryptamine receptor 1A (Homo sapiens) (UniProt P08908); details: Compound concentration 10.0 uM
[42] = target: 5-hydroxytryptamine receptor 7 (Homo sapiens) (UniProt P34969); details: Compound concentration 10.0 uM
[43] = target: Alpha-1B adrenergic receptor (Homo sapiens) (UniProt P35368); details: Compound concentration 10.0 uM
[44] = target: Beta-2 adrenergic receptor (Homo sapiens) (UniProt P07550); details: Compound concentration 10.0 uM
[45] = target: Muscarinic acetylcholine receptor M2 (Homo sapiens) (UniProt P08172); details: Compound concentration 10.0 uM

TGF-beta receptor type-2 (Homo sapiens), sequence (P37173 whole entry): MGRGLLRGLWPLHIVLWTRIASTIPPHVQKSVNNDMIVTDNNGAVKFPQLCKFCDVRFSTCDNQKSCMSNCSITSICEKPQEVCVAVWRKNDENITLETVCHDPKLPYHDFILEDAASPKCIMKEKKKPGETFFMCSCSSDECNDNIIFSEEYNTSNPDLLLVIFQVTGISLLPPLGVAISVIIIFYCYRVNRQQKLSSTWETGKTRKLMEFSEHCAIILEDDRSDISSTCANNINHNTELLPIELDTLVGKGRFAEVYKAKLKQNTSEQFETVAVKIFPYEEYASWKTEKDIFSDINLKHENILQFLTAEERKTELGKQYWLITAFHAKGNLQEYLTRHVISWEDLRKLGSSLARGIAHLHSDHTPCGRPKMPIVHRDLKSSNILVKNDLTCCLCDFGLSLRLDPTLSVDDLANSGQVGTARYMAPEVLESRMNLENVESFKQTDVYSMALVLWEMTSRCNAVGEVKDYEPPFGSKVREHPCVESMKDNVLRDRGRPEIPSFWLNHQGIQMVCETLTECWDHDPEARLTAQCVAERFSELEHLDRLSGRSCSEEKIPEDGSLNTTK
Tyrosine-protein kinase Fes/Fps (Homo sapiens), sequence (P07332 whole entry, the tested form may be a part): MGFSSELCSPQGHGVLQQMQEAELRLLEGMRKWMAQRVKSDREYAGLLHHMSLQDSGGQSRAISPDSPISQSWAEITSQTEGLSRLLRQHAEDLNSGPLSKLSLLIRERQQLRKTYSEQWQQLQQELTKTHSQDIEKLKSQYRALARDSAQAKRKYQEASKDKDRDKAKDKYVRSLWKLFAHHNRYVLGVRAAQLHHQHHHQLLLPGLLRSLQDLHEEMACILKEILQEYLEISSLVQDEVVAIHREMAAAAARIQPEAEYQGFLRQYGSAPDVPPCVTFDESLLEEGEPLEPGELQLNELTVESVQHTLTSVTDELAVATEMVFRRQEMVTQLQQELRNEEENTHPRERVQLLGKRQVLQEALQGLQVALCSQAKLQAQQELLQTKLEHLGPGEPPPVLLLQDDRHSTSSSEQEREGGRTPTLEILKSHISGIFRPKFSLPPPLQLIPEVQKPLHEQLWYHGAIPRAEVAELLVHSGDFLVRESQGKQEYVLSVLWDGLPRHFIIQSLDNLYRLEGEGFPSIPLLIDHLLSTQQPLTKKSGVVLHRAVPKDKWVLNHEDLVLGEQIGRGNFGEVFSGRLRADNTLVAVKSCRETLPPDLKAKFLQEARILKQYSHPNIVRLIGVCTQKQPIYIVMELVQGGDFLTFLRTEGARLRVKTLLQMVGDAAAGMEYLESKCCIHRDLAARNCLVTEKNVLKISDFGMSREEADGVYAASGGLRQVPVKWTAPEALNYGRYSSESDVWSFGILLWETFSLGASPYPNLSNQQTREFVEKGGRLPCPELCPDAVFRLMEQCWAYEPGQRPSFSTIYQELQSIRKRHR
NUAK family SNF1-like kinase 2 (Homo sapiens), sequence (Q9H093 whole entry): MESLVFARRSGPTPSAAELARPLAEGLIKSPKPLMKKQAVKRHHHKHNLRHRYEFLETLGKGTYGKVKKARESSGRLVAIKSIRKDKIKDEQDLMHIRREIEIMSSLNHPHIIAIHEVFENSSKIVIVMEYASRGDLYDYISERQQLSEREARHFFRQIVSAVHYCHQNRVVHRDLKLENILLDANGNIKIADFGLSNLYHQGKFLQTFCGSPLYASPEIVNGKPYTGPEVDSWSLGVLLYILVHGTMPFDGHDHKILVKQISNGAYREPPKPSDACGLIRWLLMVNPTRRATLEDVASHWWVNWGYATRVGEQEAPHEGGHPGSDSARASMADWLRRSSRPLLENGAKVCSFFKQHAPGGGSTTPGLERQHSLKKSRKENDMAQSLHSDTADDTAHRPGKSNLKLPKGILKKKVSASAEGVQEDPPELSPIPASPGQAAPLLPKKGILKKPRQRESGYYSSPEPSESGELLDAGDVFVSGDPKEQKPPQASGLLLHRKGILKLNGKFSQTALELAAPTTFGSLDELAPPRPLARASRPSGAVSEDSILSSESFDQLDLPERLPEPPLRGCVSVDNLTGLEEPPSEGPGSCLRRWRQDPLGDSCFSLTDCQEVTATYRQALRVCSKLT
Cyclin-dependent kinase-like 3 (Homo sapiens), sequence (Q8IVW4 whole entry, looked up): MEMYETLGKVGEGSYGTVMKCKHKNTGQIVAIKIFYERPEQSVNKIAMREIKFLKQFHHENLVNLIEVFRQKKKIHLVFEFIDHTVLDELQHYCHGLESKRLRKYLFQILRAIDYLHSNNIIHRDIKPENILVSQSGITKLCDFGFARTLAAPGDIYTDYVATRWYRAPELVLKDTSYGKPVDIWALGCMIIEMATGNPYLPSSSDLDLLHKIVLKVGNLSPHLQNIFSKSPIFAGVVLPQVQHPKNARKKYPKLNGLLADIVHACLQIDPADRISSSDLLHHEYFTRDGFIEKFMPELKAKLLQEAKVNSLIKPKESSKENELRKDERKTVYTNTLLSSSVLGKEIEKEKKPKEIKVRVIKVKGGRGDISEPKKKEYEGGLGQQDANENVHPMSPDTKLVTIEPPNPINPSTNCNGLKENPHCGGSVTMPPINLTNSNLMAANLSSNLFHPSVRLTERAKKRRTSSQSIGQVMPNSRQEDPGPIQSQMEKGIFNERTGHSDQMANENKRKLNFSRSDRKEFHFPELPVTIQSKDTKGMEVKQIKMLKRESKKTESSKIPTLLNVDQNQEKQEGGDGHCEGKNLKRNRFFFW
Calcium/calmodulin-dependent protein kinase kinase 1 (Homo sapiens), sequence (Q8N5S9 whole entry, looked up): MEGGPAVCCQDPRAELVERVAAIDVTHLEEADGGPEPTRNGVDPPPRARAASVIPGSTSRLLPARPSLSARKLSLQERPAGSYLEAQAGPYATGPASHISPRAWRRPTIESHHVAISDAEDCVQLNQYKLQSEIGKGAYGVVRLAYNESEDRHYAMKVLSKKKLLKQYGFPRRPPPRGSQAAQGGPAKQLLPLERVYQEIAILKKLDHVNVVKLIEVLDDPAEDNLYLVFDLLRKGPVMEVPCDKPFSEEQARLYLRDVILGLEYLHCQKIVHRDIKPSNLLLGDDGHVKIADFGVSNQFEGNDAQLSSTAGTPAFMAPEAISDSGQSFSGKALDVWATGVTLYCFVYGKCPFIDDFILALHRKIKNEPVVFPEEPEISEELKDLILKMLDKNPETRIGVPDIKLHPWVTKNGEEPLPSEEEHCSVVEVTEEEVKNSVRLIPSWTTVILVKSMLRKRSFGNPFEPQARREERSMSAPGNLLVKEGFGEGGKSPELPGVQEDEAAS
LIM domain kinase 1 (Homo sapiens), sequence (P53667 whole entry, looked up, the tested form may be a part): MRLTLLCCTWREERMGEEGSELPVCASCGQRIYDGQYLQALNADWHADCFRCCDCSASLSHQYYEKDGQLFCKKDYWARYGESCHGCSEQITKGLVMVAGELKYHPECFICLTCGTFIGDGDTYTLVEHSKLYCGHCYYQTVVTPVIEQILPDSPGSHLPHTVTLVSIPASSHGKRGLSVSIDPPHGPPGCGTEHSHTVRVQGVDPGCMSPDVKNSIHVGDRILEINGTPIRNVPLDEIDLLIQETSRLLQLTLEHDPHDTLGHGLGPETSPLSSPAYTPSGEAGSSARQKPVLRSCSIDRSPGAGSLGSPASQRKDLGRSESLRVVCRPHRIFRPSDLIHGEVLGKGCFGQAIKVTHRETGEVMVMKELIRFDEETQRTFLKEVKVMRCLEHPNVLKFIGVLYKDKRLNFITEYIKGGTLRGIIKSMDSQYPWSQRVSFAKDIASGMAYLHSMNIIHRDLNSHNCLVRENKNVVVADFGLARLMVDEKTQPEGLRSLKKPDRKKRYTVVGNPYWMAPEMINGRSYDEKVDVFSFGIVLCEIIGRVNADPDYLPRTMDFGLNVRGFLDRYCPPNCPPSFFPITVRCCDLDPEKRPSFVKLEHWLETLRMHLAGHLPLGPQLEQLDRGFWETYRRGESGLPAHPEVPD
Phosphatidylinositol 4,5-bisphosphate 3-kinase catalytic subunit alpha isoform (Homo sapiens), P42336 [E542K], sequence (P42336 whole entry E542K, canonical isoform): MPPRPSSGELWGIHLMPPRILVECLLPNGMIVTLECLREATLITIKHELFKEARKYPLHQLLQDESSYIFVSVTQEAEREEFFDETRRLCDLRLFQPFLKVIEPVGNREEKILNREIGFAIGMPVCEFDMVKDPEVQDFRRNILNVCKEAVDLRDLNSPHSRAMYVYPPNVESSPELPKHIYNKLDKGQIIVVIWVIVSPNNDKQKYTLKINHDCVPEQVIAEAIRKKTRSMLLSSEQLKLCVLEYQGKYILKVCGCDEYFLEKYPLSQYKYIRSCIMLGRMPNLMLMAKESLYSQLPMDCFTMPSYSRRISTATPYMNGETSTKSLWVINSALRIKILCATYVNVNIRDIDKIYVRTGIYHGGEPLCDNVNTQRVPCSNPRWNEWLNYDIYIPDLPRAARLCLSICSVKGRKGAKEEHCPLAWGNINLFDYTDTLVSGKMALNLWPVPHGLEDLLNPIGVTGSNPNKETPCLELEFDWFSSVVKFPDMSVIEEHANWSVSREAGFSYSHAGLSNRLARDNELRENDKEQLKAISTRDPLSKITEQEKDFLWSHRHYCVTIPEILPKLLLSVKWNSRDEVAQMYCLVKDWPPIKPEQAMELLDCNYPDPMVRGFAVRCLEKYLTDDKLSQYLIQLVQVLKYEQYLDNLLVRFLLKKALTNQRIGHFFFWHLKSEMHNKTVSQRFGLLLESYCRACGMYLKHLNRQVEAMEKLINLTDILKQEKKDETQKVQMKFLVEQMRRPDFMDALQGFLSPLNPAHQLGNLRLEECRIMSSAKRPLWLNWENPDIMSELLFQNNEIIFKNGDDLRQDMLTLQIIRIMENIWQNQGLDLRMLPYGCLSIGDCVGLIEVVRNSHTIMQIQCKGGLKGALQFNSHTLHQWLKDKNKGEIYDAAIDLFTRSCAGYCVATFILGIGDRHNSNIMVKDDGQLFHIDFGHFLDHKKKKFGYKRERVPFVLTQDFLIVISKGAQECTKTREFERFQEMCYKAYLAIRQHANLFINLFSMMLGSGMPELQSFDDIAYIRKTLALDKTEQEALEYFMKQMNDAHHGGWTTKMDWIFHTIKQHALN
Phosphatidylinositol 4,5-bisphosphate 3-kinase catalytic subunit alpha isoform (Homo sapiens), sequence (P42336 whole entry, canonical isoform): as the sequence (P42336 whole entry E542K, canonical isoform) above, with K542E counted along it

Question: How did the residual activity [1] turn out when `C[C@H](c1cccc(C#N)c1)n1cc(Cl)cc(C(N)=O)c1=N` [(R)-9s] was run?
Answer: Its residual activity is 100%.

Question: What about the residual activity [2] of the same molecule?
Answer: The residual activity was 93%.

Question: What about the residual activity [3] of the same molecule?
Answer: The residual activity was 77%.

Question: What about the residual activity [4] of the same molecule?
Answer: Its residual activity is 87%.

Question: What about the residual activity [5] of the same molecule?
Answer: Its residual activity is 100%.

Question: What about the residual activity [6] of the same molecule?
Answer: Its residual activity is 78%.

Question: What about the residual activity [7] of the same molecule?
Answer: Its residual activity is 88%.

Question: And the residual activity [8]?
Answer: The residual activity was 92%.

Question: And the residual activity [9]?
Answer: The residual activity was 100%.

Question: And the residual activity [10]?
Answer: The residual activity was 53%.

Question: And the residual activity [11]?
Answer: The residual activity was 88%.

Question: What about the residual activity [12] of the same molecule?
Answer: Its residual activity is 100%.

Question: What about the residual activity [13] of the same molecule?
Answer: Its residual activity is 100%.

Question: What about the residual activity [14] of the same molecule?
Answer: Its residual activity is 95%.

Question: And the residual activity [15]?
Answer: Its residual activity is 100%.

Question: And the residual activity [16]?
Answer: The residual activity was 100%.

Question: And the residual activity [17]?
Answer: The residual activity was 100%.

Question: And the residual activity [18]?
Answer: Its residual activity is 100%.

Question: What about the residual activity [19] of the same molecule?
Answer: The residual activity was 100%.

Question: What about the residual activity [20] of the same molecule?
Answer: Its residual activity is 100%.

Question: What about the residual activity [21] of the same molecule?
Answer: Its residual activity is 92%.

Question: What about the residual activity [22] of the same molecule?
Answer: The residual activity was 77%.

Question: What about the residual activity [23] of the same molecule?
Answer: Its residual activity is 100%.

Question: What about the residual activity [24] of the same molecule?
Answer: The residual activity was 100%.

Question: What about the residual activity [25] of the same molecule?
Answer: The residual activity was 100%.

Question: What about the residual activity [26] of the same molecule?
Answer: Its residual activity is 98%.

Question: What about the residual activity [27] of the same molecule?
Answer: Its residual activity is 100%.

Question: And the residual activity [28]?
Answer: The residual activity was 66%.

Question: What about the residual activity [29] of the same molecule?
Answer: The residual activity was 94%.

Question: What about the residual activity [30] of the same molecule?
Answer: Its residual activity is 100%.

Question: And the residual activity [31]?
Answer: Its residual activity is 77%.

Question: And the residual activity [32]?
Answer: Its residual activity is 91%.

Question: What about the residual activity [33] of the same molecule?
Answer: Its residual activity is 100%.

Question: What about the residual activity [34] of the same molecule?
Answer: The residual activity was 100%.

Question: What about the residual activity [35] of the same molecule?
Answer: The residual activity was 96%.

Question: And the residual activity [36]?
Answer: The residual activity was 66%.

Question: What about the residual activity [37] of the same molecule?
Answer: The residual activity was 75%.

Question: What about the residual activity [38] of the same molecule?
Answer: Its residual activity is 78%.

Question: And the residual activity [39]?
Answer: The residual activity was 79%.

Question: What about the residual activity [40] of the same molecule?
Answer: The residual activity was 86%.

Question: What about the inhibition [41] of the same molecule?
Answer: Its inhibition is -4.95%.

Question: And the inhibition [42]?
Answer: The inhibition was -7.43%.

Question: And the inhibition [43]?
Answer: The inhibition was -1.16%.

Question: What about the inhibition [44] of the same molecule?
Answer: The inhibition was 18.6%.

Question: And the inhibition [45]?
Answer: The inhibition was -3.2%.

Question: Which residual activity [1] does the source give for `C[C@@H](c1cccc(C#N)c1)n1cc(Cl)cc(C(N)=O)c1=N` [(S)-9s] here?
Answer: Its residual activity is 100%.

Question: What about the residual activity [2] of the same molecule?
Answer: Its residual activity is 80%.

Question: And the residual activity [3]?
Answer: Its residual activity is 95%.

Question: And the residual activity [4]?
Answer: Its residual activity is 100%.

Question: What about the residual activity [5] of the same molecule?
Answer: The residual activity was 100%.

Question: What about the residual activity [6] of the same molecule?
Answer: Its residual activity is 81%.

Question: What about the residual activity [7] of the same molecule?
Answer: The residual activity was 85%.

Question: What about the residual activity [8] of the same molecule?
Answer: Its residual activity is 91%.

Question: And the residual activity [9]?
Answer: The residual activity was 100%.

Question: What about the residual activity [10] of the same molecule?
Answer: The residual activity was 77%.

Question: What about the residual activity [11] of the same molecule?
Answer: The residual activity was 100%.

Question: What about the residual activity [12] of the same molecule?
Answer: Its residual activity is 88%.

Question: What about the residual activity [13] of the same molecule?
Answer: The residual activity was 100%.

Question: What about the residual activity [14] of the same molecule?
Answer: Its residual activity is 100%.

Question: And the residual activity [15]?
Answer: The residual activity was 100%.

Question: And the residual activity [16]?
Answer: Its residual activity is 100%.

Question: And the residual activity [17]?
Answer: The residual activity was 88%.

Question: And the residual activity [18]?
Answer: The residual activity was 73%.

Question: And the residual activity [19]?
Answer: The residual activity was 100%.

Question: And the residual activity [20]?
Answer: Its residual activity is 100%.

Question: And the residual activity [21]?
Answer: The residual activity was 100%.

Question: What about the residual activity [22] of the same molecule?
Answer: Its residual activity is 89%.

Question: And the residual activity [23]?
Answer: Its residual activity is 100%.

Question: What about the residual activity [24] of the same molecule?
Answer: Its residual activity is 100%.

Question: And the residual activity [25]?
Answer: The residual activity was 100%.

Question: What about the residual activity [26] of the same molecule?
Answer: The residual activity was 100%.

Question: And the residual activity [27]?
Answer: Its residual activity is 100%.

Question: What about the residual activity [28] of the same molecule?
Answer: Its residual activity is 88%.

Question: What about the residual activity [29] of the same molecule?
Answer: The residual activity was 90%.

Question: And the residual activity [30]?
Answer: The residual activity was 100%.

Question: What about the residual activity [31] of the same molecule?
Answer: Its residual activity is 100%.

Question: What about the residual activity [32] of the same molecule?
Answer: The residual activity was 86%.

Question: What about the residual activity [33] of the same molecule?
Answer: Its residual activity is 100%.

Question: And the residual activity [34]?
Answer: Its residual activity is 100%.

Question: And the residual activity [35]?
Answer: The residual activity was 0%.

Question: And the residual activity [36]?
Answer: The residual activity was 100%.

Question: What about the residual activity [37] of the same molecule?
Answer: The residual activity was 94%.

Question: And the residual activity [38]?
Answer: The residual activity was 72%.

Question: And the residual activity [39]?
Answer: Its residual activity is 85%.

Question: What about the residual activity [40] of the same molecule?
Answer: The residual activity was 71%.

Question: And the inhibition [41]?
Answer: Its inhibition is 1.02%.

Question: What about the inhibition [42] of the same molecule?
Answer: Its inhibition is 4.17%.

Question: What about the inhibition [43] of the same molecule?
Answer: Its inhibition is -5.97%.

Question: And the inhibition [44]?
Answer: Its inhibition is 13.8%.

Question: What about the inhibition [45] of the same molecule?
Answer: Its inhibition is 0.11%.
